Some results are limits rather than exact numbers.

In assay [1] the target is T1, LRRK2 (Homo sapiens, UniProt Q5S007). The experiment in a line: experiment of inhibiting LRRK2 kinase activity (ADP-Glo method). In kind it is biochemical. Conditions: Table 4. How it is done: The inhibitory effect of the compounds on the activity of LRRK2 kinase was detected by ADP-Glo method. The diluted solutions of the compounds were transfered to a 384-well plate (784075, Greiner), the plate was sealed and centrifuged at a speed of 1000 g for 1 minute. A kinase solution at 2-fold final concentration was prepared with 1×kinase buffer, 2.5 µl of the kinase solution with 2-fold final concentration was added to the wells, the plate was centrifuged at 1000 g for 30 seconds, and left at room temperature for 10 minutes. A mixed solution of ATP and kinase substrate at 2-fold final concentration was prepared with 1×kinase buffer, and 2.5 µL of mixed solution of ATP and substrate at 2-fold final concentration was added to start the reaction. The plate was centrifuged at 1000 g for 30 seconds, sealed and left at room temperature for 2 hours. 4 µL of ADP-Glo reagent was added and incubated at room temperature for 40 minutes; 8 µL kinase detection reagent was added and incubated at room temperature for another 40 minutes. The luminescence signal value was detected on Envision 2104 microplate reader. The conversion inhibition rate%=100-(compound signal value-positive control signal value)/(blank control signal value-positive control signal value)×100.
T1 sequence (Q5S007 whole entry): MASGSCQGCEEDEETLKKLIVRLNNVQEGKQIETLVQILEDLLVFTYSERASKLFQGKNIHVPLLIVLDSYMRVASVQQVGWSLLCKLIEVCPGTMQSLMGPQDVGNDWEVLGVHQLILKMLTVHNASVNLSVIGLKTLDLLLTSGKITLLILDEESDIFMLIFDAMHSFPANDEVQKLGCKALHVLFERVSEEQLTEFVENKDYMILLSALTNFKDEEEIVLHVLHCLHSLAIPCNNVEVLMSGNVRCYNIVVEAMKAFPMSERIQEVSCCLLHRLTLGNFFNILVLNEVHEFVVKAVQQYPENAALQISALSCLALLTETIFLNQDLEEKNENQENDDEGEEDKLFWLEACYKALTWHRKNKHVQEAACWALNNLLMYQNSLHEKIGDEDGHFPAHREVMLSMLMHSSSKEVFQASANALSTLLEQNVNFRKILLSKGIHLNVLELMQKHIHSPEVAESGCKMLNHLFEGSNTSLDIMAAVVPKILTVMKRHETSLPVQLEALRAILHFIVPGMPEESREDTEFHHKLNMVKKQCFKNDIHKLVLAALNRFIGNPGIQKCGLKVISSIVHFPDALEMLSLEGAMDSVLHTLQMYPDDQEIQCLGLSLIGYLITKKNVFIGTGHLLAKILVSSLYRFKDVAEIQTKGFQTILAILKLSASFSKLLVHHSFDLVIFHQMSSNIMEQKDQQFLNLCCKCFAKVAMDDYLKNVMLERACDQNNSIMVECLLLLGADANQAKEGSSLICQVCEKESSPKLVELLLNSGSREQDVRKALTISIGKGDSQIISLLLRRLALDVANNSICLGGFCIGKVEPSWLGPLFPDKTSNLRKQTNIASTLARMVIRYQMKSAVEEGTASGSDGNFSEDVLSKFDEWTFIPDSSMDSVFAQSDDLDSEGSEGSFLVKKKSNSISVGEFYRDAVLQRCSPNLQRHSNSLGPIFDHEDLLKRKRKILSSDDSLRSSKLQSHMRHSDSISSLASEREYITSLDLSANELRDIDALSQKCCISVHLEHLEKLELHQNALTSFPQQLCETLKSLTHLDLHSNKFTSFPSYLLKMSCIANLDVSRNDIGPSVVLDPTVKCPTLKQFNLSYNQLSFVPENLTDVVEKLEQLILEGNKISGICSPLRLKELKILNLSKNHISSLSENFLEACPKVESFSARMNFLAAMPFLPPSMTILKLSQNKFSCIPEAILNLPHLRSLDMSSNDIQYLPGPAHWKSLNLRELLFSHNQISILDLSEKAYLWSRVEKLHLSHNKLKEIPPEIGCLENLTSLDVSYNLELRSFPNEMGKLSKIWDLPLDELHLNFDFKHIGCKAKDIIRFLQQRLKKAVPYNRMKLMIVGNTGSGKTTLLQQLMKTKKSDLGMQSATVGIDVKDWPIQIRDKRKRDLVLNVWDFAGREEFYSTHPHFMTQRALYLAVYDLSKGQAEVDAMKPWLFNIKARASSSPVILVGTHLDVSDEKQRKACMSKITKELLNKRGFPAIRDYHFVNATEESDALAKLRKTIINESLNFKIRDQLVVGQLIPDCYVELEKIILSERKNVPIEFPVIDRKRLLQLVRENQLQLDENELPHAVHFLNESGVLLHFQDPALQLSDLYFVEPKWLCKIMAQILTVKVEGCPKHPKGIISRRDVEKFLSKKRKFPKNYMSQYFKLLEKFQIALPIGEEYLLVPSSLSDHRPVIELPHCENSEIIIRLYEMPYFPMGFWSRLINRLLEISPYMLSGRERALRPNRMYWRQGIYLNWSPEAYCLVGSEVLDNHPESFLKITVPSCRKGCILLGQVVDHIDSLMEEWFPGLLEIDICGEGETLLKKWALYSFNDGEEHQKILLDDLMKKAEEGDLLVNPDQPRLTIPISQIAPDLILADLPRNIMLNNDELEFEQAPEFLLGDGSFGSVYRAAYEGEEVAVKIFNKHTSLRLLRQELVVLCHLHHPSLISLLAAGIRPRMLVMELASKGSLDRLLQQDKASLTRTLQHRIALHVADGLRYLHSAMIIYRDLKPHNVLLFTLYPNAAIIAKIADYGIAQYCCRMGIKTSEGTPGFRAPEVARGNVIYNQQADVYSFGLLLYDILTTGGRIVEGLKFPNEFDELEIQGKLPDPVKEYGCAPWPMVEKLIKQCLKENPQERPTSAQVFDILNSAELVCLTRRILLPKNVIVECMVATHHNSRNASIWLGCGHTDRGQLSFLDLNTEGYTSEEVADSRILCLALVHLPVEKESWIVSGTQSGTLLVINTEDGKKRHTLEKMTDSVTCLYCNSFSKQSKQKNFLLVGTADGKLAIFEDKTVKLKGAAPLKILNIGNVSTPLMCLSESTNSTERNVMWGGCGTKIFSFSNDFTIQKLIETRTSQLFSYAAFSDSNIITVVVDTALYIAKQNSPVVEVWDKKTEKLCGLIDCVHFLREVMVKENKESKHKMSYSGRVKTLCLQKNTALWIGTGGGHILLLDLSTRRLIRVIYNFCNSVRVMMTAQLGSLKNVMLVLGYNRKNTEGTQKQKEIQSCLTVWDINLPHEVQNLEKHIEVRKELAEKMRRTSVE
The IC50 was calculated with GraphPad 6.0 and the dose-responsive curve of the compounds was plotted as follows: y=Bottom+(Top-Bottom)/(1+10^((logic50-x)×hillslope)), where x was logarithm of inhibitor concentration; and y was % inhibition rate.
A general note: In ADP-Glo the light output rises with the ADP produced.

Assay [2] deals with T2, endogenous phosphorylated LRRK2 (S935) (Homo sapiens, UniProt Q5S007).
T2 construct: Detection of endogenous phosphorylated LRRK2 (S935) in A549 cells; endogenous in cells; host or cells: A549
T2 sequence (Q5S007 whole entry): as above
The assay is described as follows: detection of endogenous phosphorylated LRRK2 (S935) in A549 cells (Western blot). Conditions: at 2 µM, LRRK2 (S935) activity in A549 cells, 15 hours; read-out: Inhibition rate. It is filed as cell-based. The procedure: Detection of endogenous phosphorylated LRRK2 (S935) in A549 cells
A549 cells were resuspended in serum-free 1640 medium at a density of 1×10^6 cells/ml, and inoculated into a 6-well plate at 1 ml/well, and cultured at 37°C and 5% CO2 for 6-8 hours. 1 microliter of compound solution in DMSO or DMSO (volume ratio of 0.1%) was added, mixed evenly, and cultivated at 37°C and 5% CO2 for 15 hours. Cells were collected, 50 microliters of RIPA III lysis solution were added to each sample to lyse cells on ice for 15 minutes, centrifuged at 4°C and 13000 rpm for 30 minutes, the supernatant was collected, the protein concentration of cell lysis solution was measured by BCA, and the protein concentrations of all samples were normalized. 5×sample loading buffer were added and kept at 95°C for 10 minutes. The content of phosphorylated S935 of endogenous LRRK2 was detected by Western blot, using antibody against phosphorylated LRRK2 (S935) (Abcam#133450). The signal intensity of phosphorylated LRRK2 (S935) was counted by Image J, the signal of phosphorylated LRRK2 (S935) in a sample was normalized by β-actin, and the data was analyzed.
A general note: Immunoblotting shows a protein as a band on a membrane.

Assay [3] has as its target JAK1 (Homo sapiens, UniProt P23458). The experiment in a line: experiment of inhibiting kinase activity (Caliper mobility shift assay), JAK1. It is filed as biochemical. Conditions: at 100 nM; read-out: inhibition rate JAK1. In outline:
(§1)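 Inhibition is measured as reduced conversion of substrate by the kinase, separated by microfluidic mobility shift after a room-temperature reaction started with ATP/substrate following a 10-min compound preincubation. Test doses are 10 nM, 100 nM, or a 10-point 3-fold series from 10 µM.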

For assay [4], the target named is CDK7 (Homo sapiens, UniProt P50613). The assay is described as follows: experiment of inhibiting kinase activity (Caliper mobility shift assay), CDK7. In kind it is biochemical. Conditions: read-out: inhibition rate CDK7. In outline: as §1
Sequence of CDK7 (P50613 whole entry, species assumed): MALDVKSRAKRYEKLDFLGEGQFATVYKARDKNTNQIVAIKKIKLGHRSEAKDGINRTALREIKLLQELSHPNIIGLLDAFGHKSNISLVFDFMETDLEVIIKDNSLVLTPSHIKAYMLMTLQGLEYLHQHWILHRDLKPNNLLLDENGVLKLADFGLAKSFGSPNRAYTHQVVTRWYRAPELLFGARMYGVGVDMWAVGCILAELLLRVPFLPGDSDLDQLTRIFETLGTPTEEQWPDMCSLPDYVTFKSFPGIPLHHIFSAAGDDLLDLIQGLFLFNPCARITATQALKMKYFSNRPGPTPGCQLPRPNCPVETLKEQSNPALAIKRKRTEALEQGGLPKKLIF
Sequence of CDK7 (P51946 whole entry partner, species assumed): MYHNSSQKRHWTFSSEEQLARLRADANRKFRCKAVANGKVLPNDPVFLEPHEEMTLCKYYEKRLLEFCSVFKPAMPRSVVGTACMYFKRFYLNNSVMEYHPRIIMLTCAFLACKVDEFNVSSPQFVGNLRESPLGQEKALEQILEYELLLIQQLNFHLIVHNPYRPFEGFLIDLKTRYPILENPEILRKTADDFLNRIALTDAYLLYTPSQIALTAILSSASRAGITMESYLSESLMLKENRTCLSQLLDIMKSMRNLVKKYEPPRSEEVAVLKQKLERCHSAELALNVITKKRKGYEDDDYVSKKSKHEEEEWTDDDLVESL
Sequence of CDK7 (P51948 whole entry partner, species assumed): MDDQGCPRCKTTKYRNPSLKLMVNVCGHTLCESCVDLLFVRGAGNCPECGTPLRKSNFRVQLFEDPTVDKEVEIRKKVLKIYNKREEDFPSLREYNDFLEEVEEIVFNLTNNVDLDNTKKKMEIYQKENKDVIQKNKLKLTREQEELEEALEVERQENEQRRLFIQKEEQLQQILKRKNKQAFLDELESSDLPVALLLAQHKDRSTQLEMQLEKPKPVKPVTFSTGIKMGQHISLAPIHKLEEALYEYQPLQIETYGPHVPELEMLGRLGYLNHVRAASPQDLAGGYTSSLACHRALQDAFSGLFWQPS
In assay [5] the target is T1, LRRK2. The experiment in a line: experiment of inhibiting kinase activity, LRRK2. It is filed as biochemical. How it is done: (§2) The inhibition rates of tested compounds on JAK1, JAK2, JAK3, TYK2, CDK7, CDK9, EGFR (T790M) and LRRK2 kinases were measured. The test concentrations of the compounds were 10 nM and 100 nM, and the detection was performed by replicate wells. Alternatively, compounds were 3-fold serial diluted from 10 µM for 10 concentrations in replicate wells.

Assay [6] addresses CDK9 (Homo sapiens, UniProt P50750). The experiment in a line: experiment of inhibiting kinase activity (Caliper mobility shift assay), CDK9. The settings on record: at 100 nM; read-out: inhibition rate CDK9. It is filed as biochemical. The procedure: as §2
The inhibitory effects of the compounds on JAK1, JAK2, JAK3, CDK7 and CDK9 kinases were detected by the method of Caliper mobility shift assay. 250 nL of the compound at 100-fold final concentration was transferred to a destination plate 384-well-plate by using a liquid handler Echo 550. A kinase solution at 2.5-fold final concentration was prepared with 1×kinase buffer. 10 µL of the kinase solution with 2.5-fold final concentration was added to compound wells and positive control wells; and 10 µL of 1×kinase buffer was added to negative control wells. The mixture was centrifuged at 1000 rpm for 30 seconds and then incubated at room temperature for 10 minutes. A mixed solution of ATP and kinase substrate at 5/3-fold final concentration was prepared with 1×kinase buffer, and 15 µL of the mixed solution of ATP and substrate at 5/3-fold final concentration was added to start the reaction. The 384-well plate was centrifuged at 1000 rpm for 30 seconds, shaked and mixed evenly, then incubated at room temperature for a corresponding time. 30 µL of stop solution was added to stop the kinase reaction, the mixture was centrifuged at 1000 rpm for 30 seconds, and shaked and mixed evenly. The conversion rate was read by Caliper EZ Reader. The conversion inhibition rate%=(average positive control conversion rate%-sample conversion rate%)/(average positive control conversion rate%-average negative control conversion rate%). Where negative control wells represent the conversion readings of the background well of kinase buffer; and positive control wells represent the conversion readings of wells without compound inhibition. With the log value of concentration as the x axis and the percentage inhibition rate as the y axis, the dose-response curve was fitted by the log (inhibitor) vs. response-variable slope of the analyzing softwar GraphPad Prism 5, and the IC50 values of each compound on enzyme activity were obtained. Calculation formula is as follows: y=Bottom+(Top-Bottom)/(1+10^((LogIC50-x)×hillslope)), where x is logarithm of inhibitor concentration; and Y is % inhibition rate.

The target in assay [7] is TYK2 (Homo sapiens, UniProt P29597). The assay is described as follows: experiment of inhibiting kinase activity, TYK2. In kind it is biochemical. Conditions: at 100 nM; read-out: inhibition rate TYK2. The procedure: as §2
Assay [8] concerns the target JAK2 (Homo sapiens, UniProt O60674). The experiment in a line: experiment of inhibiting kinase activity (Caliper mobility shift assay), JAK2. In kind it is biochemical. Conditions: read-out: inhibition rate JAK2. The method in brief:
as §1

Assay [9] addresses T3, JAK3 (Homo sapiens, UniProt P52333).
T3 sequence (P52333 1-1124): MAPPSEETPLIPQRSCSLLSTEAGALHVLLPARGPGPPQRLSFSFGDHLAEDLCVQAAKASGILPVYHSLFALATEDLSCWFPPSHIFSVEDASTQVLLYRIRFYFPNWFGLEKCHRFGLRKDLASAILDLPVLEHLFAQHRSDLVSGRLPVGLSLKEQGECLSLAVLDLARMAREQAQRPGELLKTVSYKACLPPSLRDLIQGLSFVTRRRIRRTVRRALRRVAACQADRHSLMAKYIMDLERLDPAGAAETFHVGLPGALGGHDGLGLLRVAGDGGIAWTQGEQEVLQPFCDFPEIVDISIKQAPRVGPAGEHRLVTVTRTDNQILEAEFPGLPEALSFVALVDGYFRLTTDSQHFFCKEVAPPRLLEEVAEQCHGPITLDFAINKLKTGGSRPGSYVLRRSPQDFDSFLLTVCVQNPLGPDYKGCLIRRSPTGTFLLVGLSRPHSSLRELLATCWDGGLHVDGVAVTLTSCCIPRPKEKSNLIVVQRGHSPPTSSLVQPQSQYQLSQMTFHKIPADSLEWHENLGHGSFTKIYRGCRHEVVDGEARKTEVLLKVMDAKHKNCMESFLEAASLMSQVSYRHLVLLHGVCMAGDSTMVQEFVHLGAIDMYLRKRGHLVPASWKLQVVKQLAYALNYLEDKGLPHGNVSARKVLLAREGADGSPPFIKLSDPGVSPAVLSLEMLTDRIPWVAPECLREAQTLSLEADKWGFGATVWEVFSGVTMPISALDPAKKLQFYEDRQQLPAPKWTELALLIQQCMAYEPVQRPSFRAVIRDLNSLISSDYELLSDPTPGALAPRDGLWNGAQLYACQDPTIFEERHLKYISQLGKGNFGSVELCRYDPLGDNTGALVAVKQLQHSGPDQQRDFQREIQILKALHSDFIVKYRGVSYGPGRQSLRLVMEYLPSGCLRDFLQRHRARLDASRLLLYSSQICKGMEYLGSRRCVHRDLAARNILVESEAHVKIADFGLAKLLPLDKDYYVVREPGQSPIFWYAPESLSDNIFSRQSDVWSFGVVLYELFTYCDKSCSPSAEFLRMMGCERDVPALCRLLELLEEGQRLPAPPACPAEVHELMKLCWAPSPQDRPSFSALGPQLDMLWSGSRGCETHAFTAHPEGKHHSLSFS
The assay is described as follows: experiment of inhibiting kinase activity (Caliper mobility shift assay), JAK3. In kind it is biochemical. The settings on record: read-out: inhibition rate JAK3. The method in brief:
as §1

Sequence of JAK2 (O60674 whole entry): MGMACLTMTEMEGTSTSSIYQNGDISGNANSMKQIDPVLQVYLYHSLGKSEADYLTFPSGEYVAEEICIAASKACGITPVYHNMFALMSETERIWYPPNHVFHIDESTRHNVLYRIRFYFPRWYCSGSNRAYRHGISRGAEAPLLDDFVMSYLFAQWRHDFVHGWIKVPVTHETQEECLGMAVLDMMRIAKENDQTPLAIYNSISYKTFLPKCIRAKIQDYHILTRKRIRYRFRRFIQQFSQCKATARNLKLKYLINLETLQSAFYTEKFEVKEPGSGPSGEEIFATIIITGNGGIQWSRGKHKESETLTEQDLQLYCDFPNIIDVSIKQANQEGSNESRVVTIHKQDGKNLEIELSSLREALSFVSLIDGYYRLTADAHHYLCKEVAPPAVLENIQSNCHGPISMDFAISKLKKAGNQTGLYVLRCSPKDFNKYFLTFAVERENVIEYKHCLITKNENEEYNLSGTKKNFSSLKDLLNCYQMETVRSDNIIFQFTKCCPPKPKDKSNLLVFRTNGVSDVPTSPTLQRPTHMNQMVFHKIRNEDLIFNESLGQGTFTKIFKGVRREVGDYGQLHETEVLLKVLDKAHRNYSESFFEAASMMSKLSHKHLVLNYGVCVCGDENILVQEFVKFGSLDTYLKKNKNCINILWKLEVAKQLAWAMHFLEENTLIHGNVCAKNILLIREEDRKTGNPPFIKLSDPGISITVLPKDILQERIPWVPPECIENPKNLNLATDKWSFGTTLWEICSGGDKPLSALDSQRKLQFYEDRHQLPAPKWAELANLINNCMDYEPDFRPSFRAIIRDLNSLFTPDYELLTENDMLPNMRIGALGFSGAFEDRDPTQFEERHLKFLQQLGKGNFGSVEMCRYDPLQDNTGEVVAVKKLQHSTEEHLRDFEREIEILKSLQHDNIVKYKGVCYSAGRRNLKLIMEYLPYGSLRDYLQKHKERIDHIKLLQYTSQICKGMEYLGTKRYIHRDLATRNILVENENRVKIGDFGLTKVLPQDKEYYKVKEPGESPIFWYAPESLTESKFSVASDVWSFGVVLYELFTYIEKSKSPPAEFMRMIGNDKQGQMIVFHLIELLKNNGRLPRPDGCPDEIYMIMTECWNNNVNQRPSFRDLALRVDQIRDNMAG

In the case of `COc1ccccc1Nc1nc(Nc2ccc3c(c2)OCCN(C)CCO3)ncc1C(F)(F)F` [Example 95, N^4-(2-methoxyphenyl)-N^2-(4-methyl-3,4,5,6-tetrahydro-2H-benzo[b][1,4,7]dioxazolin-9-yl)-5-(trifluoromethyl)pyrimidin-2,4-diamine], the IC50 in [1] was less than 100 nM.
For `Cc1cnc(Nc2ccc3c(c2)OCCN(C)CCOCCO3)nc1O[C@H]1CC[C@@](C)(O)CC1` [Example 105, (1s,4s)-1-methyl-4-((5-methyl-2-((7-methyl-2,3,6,7,8,9-hexahydro-5H-benzo[b][1,4, 7]trioxa[10]azacyclododecan-12-yl)amino)pyrimidin-4-yl)oxy)cyclohexan-1-ol], the IC50 in assay [1] was less than 100 nM.
As to `CN1CCOCCOc2ccc(Nc3ncc(C(F)(F)F)c(NCCS(C)(=O)=O)n3)cc2OCC1` [Example 89, N^2-(7-methyl-2,3,6,7,8,9-hexahydro-5H-benzo[b][1,4,7]trioxa[10]azacyclododecyl-12-yl)-N^4-(2-(methylsulfonyl)ethyl)-5-(trifluoromethyl)pyrimidin-2,4-diamine], the inhibition at 2 µM in assay [2] was 40 to 79%.
Compound `CN1CCOCCOc2ccc(Nc3nc(O[C@H]4CC[C@](C)(O)CC4)c4cc[nH]c4n3)cc2OCC1` [Example 87, (1r,4r)-1-methyl-4-((2-((7-methyl-2,3,6,7,8,9-hexahydro-5H-benzo[b][1,4,7]trioxa [10]azacyclododecan-12-yl)amino)-7H-pyrrolo[2,3-d]pyrimidin-4-yl)oxy)cyclohexan-1-ol] showed an IC50 in [1] of less than 100 nM.
As for `COCc1ccccc1Nc1nc(Nc2ccc3c(c2)OCCN(C)CCOCCO3)ncc1C(F)(F)F` [Example 116, N^4-(2-(methoxymethyl)phenyl)-N^2-(7-methyl-2,3,6,7,8,9-hexahydro-5H-benzo[b][1,4,7]trioxa[10]azacyclododecan-12-yl)-5-(trifluoromethyl)pyrimidin-2,4-diamine], the IC50 in [1] is less than 100 nM.
For the compound `CN1CCOCCOc2ccc(Nc3nc(O[C@H]4CC[C@@](C)(O)CC4)c4ccccc4n3)cc2OCC1` [Example 109, (1s,4s)-1-methyl-4-((2-((7-methyl-2,3,6,7,8,9-hexahydro-5H-benzo[b][1,4,7]trioxa[1 0]azacyclododecan-12-yl)amino)quinazolin-4-yl)oxy)cyclohexan-1-ol], in assay [1], the IC50 was 100 to 500 nM.
Take `CNc1cc(O[C@H]2CC[C@@](C)(O)CC2)nc(Nc2ccc3c(c2)OCCN(C)CCO3)n1` [Example 108, (1s,4s)-1-methyl-4-((2-((4-methyl-3,4,5,6-tetrahydro-2H-benzo[b][1,4,7]dioxazolin-9-yl)amino)-6-(methylamino)pyrimidin-4-yl)oxy)cyclohexan-1-ol]: the IC50 in assay [1] fell in the range of 500 to 1000 nM.
With `CC(C)S(=O)(=O)c1ccccc1Nc1nc(Nc2ccc3c(c2)OCCOCCN(C)CCO3)nc2[nH]ccc12` [Example 10, N^4-(2-(isopropylsulfonyl)phenyl)-N^2-(7-methyl-2,3,6,7,8,9-hexahydro-5H-benzo[b][1,4, 7]trioxa[10]azacyclododecan-13-yl)-7H-pyrrolo[2,3-d]pyrimidin-2,4-diamine], the inhibition at 0.1 µM in assay [3] was 25 to 39%; in [4] (at 100 nM), greater than 80%; in assay [5] (at 100 nM, read-out: inhibition rate LRRK2) it was greater than 80%; in assay [6] it was 40 to 79%; in assay [7], greater than 80%; in [8] (at 100 nM), greater than 80%. For the same compound, the inhibition at 0.1 µM in assay [9] (at 100 nM) was greater than 80%. Besides, the inhibition at 0.01 µM in [4] (at 10 nM) is 40 to 79%; in [5] (at 10 nM, read-out: inhibition rate LRRK2), greater than 80%; in assay [8] (at 10 nM), greater than 80%; in assay [9] (at 10 nM), 40 to 79%. Besides, the IC50 in [5] (kinase activity assay, Table 3) was less than 50 nM.
In assay [1], `CN1CCOCCOc2ccc(Nc3ncc(Cl)c(O[C@H]4CC[C@@](C)(O)CC4)n3)cc2OCC1` [Example 104, (1s,4s)-4-((5-chloro-2-((7-methyl-2,3,6,7,8,9-hexahydro-5H-benzo[b][1,4,7]trioxa[10]azacyclododecan-12-yl)amino)pyrimidin-4-yl)oxy)-1-methylcyclohexan-1-ol] gave an IC50 of less than 100 nM.

One may read the IC50 as the point on the concentration scale where inhibition reaches its midpoint. Read a high IC50 as weaker potency. One may read the inhibition as the percentage by which the read-out fell short of the control.

Source of the values: patent EP4592286A1, “MACROCYCLIC NITROGEN-CONTAINING CROWN ETHER COMPOUND AND USE THEREOF AS PROTEIN KINASE INHIBITOR” (Artivila Biopharma, priority 2022, dated 2024).
